The values that follow come from US10626113B2, “Phosphodiesterase inhibitors and uses thereof” (THE TRUSTEES OF COLUMBIA UNIVERSITY IN THE CITY OF NEW YORK, priority 2012, dated 2020).

In general, IC50 refers to the concentration needed to halve the response being measured. A lower IC50 goes with greater potency in that assay.

The target of one test is PDE5 (Homo sapiens (Human), UniProt O76074). The test can be described thus: PDE5 inhibition assay (BPS PDE assay kit, fluorescence polarization). The class given is biochemical. The procedure: Materials and Methods: PDE5 inhibition was assayed at BPS Bioscience (San Diego, Calif.) using BPS PDE assay kits (BPS Catalog number 60300, enzyme lot 090810). Test compounds were supplied as liquid solutions of 10 mM concentration in DMSO. Sildenafil, used as a standard was dissolved in DMSO. Intermediate dilutions were 10% DMSO in PDE assay buffer and tests at ranges from 0.1 to 100 nM. 0.1 ng of enzyme was used per reaction, and the substrate was 100 nM FAM-cGMP.
Assay conditions: A series of dilutions of the test compounds were prepared with 10% DMSO in assay buffer and 5 μl of the dilution was added to a 50 μl reaction so that the final concentration of DMSO is 1% in all of reactions. The enzymatic reactions were conducted at room temperature for 60 minutes in a 50 μl mixture containing PDE assay buffer, 100 nM FAM-cAMP or 100 nM FAM-cGMP, a PDE enzyme, and the test compound. After the enzymatic reaction, 100 μl of a binding solution (1:100 dilution of the binding agent with the binding agent diluent) was added to each reaction and the reaction was performed at room temperature for 60 minutes. Fluorescence intensity was measured at an excitation of 485 nm and an emission of 528 nm using a Tecan Infinite M1000 microplate reader.
(§1) Data analysis: PDE activity assays were performed in duplicate at each concentration. Fluorescence intensity is converted to fluorescence polarization using the Tecan Magellan6 software. The fluorescence polarization data were analyzed using the computer software, Graphpad Prism. The fluorescence polarization (FPt) in absence of the compound in each data set was defined as 100% activity. In the absence of PDE and the compound, the value of fluorescent polarization (FPb) in each data set was defined as 0% activity. The percent activity in the presence of the compound was calculated according to the following equation: % activity=(FP−FPb)/(FPt−FPb)×100%, where FP=the fluorescence polarization in the presence of the compound.
The values of % activity versus a series of compound concentrations were then plotted using non-linear regression analysis of Sigmoidal dose-response curve generated with the equation Y=B+(T−B)/1+10^((LogEC50-X)×Hill Slope), where Y=percent activity, B=minimum percent activity, T=maximum percent activity, X=logarithm of compound and Hill Slope=slope factor or Hill coefficient. The IC50 value was determined by the concentration causing a half-maximal percent activity.
(In general: Fluorescence polarisation rises when a labelled molecule tumbles more slowly, as on binding a larger partner.)

The test system of a further test is PDE6. Description: PDE6 inhibition assay (fluorescence polarization). The class given is biochemical. Particulars: Table 1. The protocol: The enzymatic reactions were conducted at room temperature for 60 minutes in a 50 μl mixture containing PDE assay buffer, 100 nM FAM-cAMP or 100 nM FAM-cGMP, a PDE enzyme, and the test compound. After the enzymatic reaction, 100 μl of a binding solution (1:100 dilution of the binding agent with the binding agent diluent) was added to each reaction and the reaction was performed at room temperature for 60 minutes. Fluorescence intensity was measured at an excitation of 485 nm and an emission of 528 nm using a Tecan Infinite M1000 microplate reader.
as §1, with “Fluorescence” for “Data analysis: PDE activity assays were performed in duplicate at each concentration. Fluorescence”
The IC50 value was determined by the concentration causing a half-maximal percent activity.

The next test deals with APP/PS1 mice. Description: Preliminary studies with sildenafil in APP/PS1 mice. The class given is in vivo. Particulars: persist beyond the administration of the inhibitor. The procedure:
Slices from transgenic mice treated with the compound had 226.23%±6.72 potentiation compared to 164.12%±10.37 in slices from vehicle-treated transgenic mice (FIG. 3). Residual potentiation recorded during the last 5 minutes of a 2 hr recording following tetanic stimulation of the Schaffer collateral fibers at the CA3-CA1 connection.

The structures appear in SMILES notation.

As to `COc1ccc(CNc2c3c(nc4ccc(C#N)cc24)NCCNC3=O)cc1Cl` [E, 6-[(3-chloro-4-methoxybenzyl)amino]-5-oxo-2,3,4,5-tetrahydro-1H-[1,4]diazepino[5,6-b]quinoline-8-carbonitrile], the IC50 on PDE5 (Table 1, 100 nM FAM-cGMP) turned out to be 43.8 nM; in the test with PDE6 it was 6620 nM.
Consider `COc1ccc(CNc2c3c(nc4ccc(C#N)cc24)CCNC3)cc1Cl` [G, 10-((3-chloro-4-methoxybenzyl)amino)-1,2,3,4-tetrahydrobenzo[b][1,6]naphthyridine-8-carbonitrile], for which the IC50 at PDE5 (Table 1, 100 nM FAM-cGMP) was 1.55 nM; in the test with PDE6, more than 100 nM.
The compound `COc1ccc(CNc2c3c(nc4ccc(Br)cc24)CCN(C)C3)cc1Cl` [A, 8-bromo-N-(3-chloro-4-methoxybenzyl)-2-methyl-1,2,3,4-tetrahydrobenzo[b][1,6]naphthyridin-10-amine] came in with an IC50 on PDE5 (Table 1, 100 nM FAM-cGMP) of 21.6 nM.
For the compound `CCc1cc(C#N)cc2c(NCc3ccc(OC)c(Cl)c3)c3c(nc12)CCN(C)C3` [D, 10-[(3-chloro-4-methoxybenzyl)amino]-6-ethyl-2-methyl-1,2,3,4-tetrahydrobenzo[b][1,6]naphthyridine-8-carbonitrile], the IC50 against PDE5 (Table 1, 100 nM FAM-cGMP) was found to be 0.07 nM; in the test on PDE6, 30 nM.
The compound `[2H]C([2H])(Nc1c2c(nc3ccc(C#N)cc13)CCN(C(C)=O)C2)c1ccc(OC)c(Cl)c1` [M] had an IC50 against PDE5 (Table 3) of 0.044 nM.
On to `CCCc1nn(C)c2c(=O)[nH]c(-c3cc(S(=O)(=O)N4CCN(C)CC4)ccc3OCC)nc12` [sildenafil], for which the “effects on synaptic and cognitive abnormalities in APP/PS1 mice” value in the test with APP/PS1 mice was “prolonged beneficial effects”.
In the case of `COc1ccc(CNc2c3c(nc4ccc(Br)cc24)CCNC3)cc1Cl` [F, 8-bromo-N-(3-chloro-4-methoxybenzyl)-1,2,3,4-tetrahydrobenzo[b][1,6]naphthyridin-10-amine], on PDE5 (Table 1, 100 nM FAM-cGMP), 5.4 nM corresponded to half-maximal inhibition (IC50).
